Measurements reported in US20070232590A1, “3-Cylcoalkylbenzazepines as Histamine H3 Antagonists” (GLAXO GROUP LIMITED, priority 2004, published 2007).

Assays:
[1] = target: T1, histamine H3 receptor (Homo sapiens, UniProt Q9Y5N1); assay: Histamine H3 functional antagonist assay (method A), [35S]-GTPγS SPA on membranes; type: biochemical; details: functional pKi, membrane from cultured H3 cells (CHO K1), histamine at EC80, averages of a number of experiments, read-out: Antagonism (fpKi) (converted)
T1 construct: expressed in transfected cells; host or cells: CHO K1 cells carrying pSwitch, transfected with pGeneH3 and induced with mifepristone; clone 3H3; membrane preparation
T1 sequence (Q9Y5N1 whole entry): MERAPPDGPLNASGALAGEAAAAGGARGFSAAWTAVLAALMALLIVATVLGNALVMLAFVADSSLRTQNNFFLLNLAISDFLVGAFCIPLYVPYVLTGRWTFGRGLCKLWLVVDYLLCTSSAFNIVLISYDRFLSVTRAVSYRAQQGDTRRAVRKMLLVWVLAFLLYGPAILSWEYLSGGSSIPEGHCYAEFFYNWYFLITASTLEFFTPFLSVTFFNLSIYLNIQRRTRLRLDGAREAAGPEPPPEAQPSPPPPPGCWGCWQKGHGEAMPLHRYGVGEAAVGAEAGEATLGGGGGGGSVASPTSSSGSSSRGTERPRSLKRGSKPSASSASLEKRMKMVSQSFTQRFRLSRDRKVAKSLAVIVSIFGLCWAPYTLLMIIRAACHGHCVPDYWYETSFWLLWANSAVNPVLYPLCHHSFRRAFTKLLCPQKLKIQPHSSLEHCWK
From the text: (§1) A membrane preparation containing histamine H3 receptors may be prepared in accordance with the following procedures:
(§2) (i) Generation of Histamine H3 Cell Line
(§3) DNA encoding the human histamine H3 gene (Huvar, A. et al. (1999) Mol. Pharmacol. 55(6), 1101-1107) was cloned into a holding vector, pCDNA3.1 TOPO (InVitrogen) and its cDNA was isolated from this vector by restriction digestion of plasmid DNA with the enzymes BamH1 and Not-1 and ligated into the inducible expression vector pGene (InVitrogen) digested with the same enzymes. The GeneSwitch™ system (a system where in transgene expression is switched off in the absence of an inducer and switched on in the presence of an inducer) was performed as described in U.S. Pat. Nos. 5,364,791; 5,874,534; and 5,935,934. Ligated DNA was transformed into competent DH5α E. coli host bacterial cells and plated onto Luria Broth (LB) agar containing Zeocin™ (an antibiotic which allows the selection of cells expressing the sh ble gene which is present on pGene and pSwitch) at 50 μg ml^−1. Colonies containing the re-ligated plasmid were identified by restriction analysis. DNA for transfection into mammalian cells was prepared from 250 ml cultures of the host bacterium containing the pGeneH3 plasmid and isolated using a DNA preparation kit (Qiagen Midi-Prep) as per manufacturers guidelines (Qiagen).
CHO K1 cells previously transfected with the pSwitch regulatory plasmid (InVitrogen) were seeded at 2×10e6 cells per T75 flask in Complete Medium, containing Hams F12 (GIBCOBRL, Life Technologies) medium supplemented with 10% v/v dialysed foetal bovine serum, L-glutamine, and hygromycin (100 μg ml^−1), 24 hours prior to use. Plasmid DNA was transfected into the cells using Lipofectamine plus according to the manufacturers guidelines (InVitrogen). 48 hours post transfection cells were placed into complete medium supplemented with 500 μg ml^−1 Zeocin™.
10-14 days post selection 10 nM Mifepristone (InVitrogen), was added to the culture medium to induce the expression of the receptor. 18 hours post induction cells were detached from the flask using ethylenediamine tetra-acetic acid (EDTA; 1:5000; InVitrogen), following several washes with phosphate buffered saline pH 7.4 and resuspended in Sorting Medium containing Minimum Essential Medium (MEM), without phenol red, and supplemented with Earles salts and 3% Foetal Clone II (Hyclone). Approximately 1×10e7 cells were examined for receptor expression by staining with a rabbit polyclonal antibody, 4a, raised against the N-terminal domain of the histamine H3 receptor, incubated on ice for 60 minutes, followed by two washes in sorting medium. Receptor bound antibody was detected by incubation of the cells for 60 minutes on ice with a goat anti rabbit antibody, conjugated with Alexa 488 fluorescence marker (Molecular Probes). Following two further washes with Sorting Medium, cells were filtered through a 50 μm Filcon™ (BD Biosciences) and then analysed on a FACS Vantage SE Flow Cytometer fitted with an Automatic Cell Deposition Unit. Control cells were non-induced cells treated in a similar manner. Positively stained cells were sorted as single cells into 96-well plates, containing Complete Medium containing 500 μg ml^−1 Zeocin™ and allowed to expand before reanalysis for receptor expression via antibody and ligand binding studies. One clone, 3H3, was selected for membrane preparation.
(ii) Membrane Preparation from Cultured Cells
All steps of the protocol are carried out at 4° C. and with pre-cooled reagents. The cell pellet is resuspended in 10 volumes of homogenisation buffer (50 mM N-2-hydroxyethylpiperazine-N′-2-ethanesulfonic acid (HEPES), 1 mM ethylenediamine tetra-acetic acid (EDTA), pH 7.4 with KOH, supplemented with 10e-6M leupeptin (acetyl-leucyl-leucyl-arginal; Sigma L2884), 25 μg/ml bacitracin (Sigma B0125), 1 mM phenylmethylsulfonyl fluoride (PMSF) and 2×10 e-6M pepstain A (Sigma)). […]

[2] = target: T1, histamine H3 receptor; assay: Histamine H3 functional antagonist assay (method B), [35S]-GTPγS SPA on membranes; type: biochemical; details: functional pKi, membrane from cultured H3 cells (CHO K1), histamine at EC80, averages of a number of experiments, read-out: Antagonism (fpKi) (converted)
From the text: as §1, §2
as §3, with “(Qiagen). […]” for “(Qiagen).”
10-14 days post selection 10 nM Mifepristone (InVitrogen), was added to the culture medium to induce the expression of the receptor. […] Receptor bound antibody was detected by incubation of the cells for 60 minutes on ice with a goat anti rabbit antibody, conjugated with Alexa 488 fluorescence marker (Molecular Probes). Following two further washes with Sorting Medium, cells were filtered through a 50 μm Filcon™ (BD Biosciences) and then analysed on a FACS Vantage SE Flow Cytometer fitted with an Automatic Cell Deposition Unit. […]

O=C1OCCN1c1ccc(Oc2ccc3c(c2)CCN(C2CCCC2)CC3)nn1 [Compound 5, 3-{6-[(3-Cyclopentyl-2,3,4,5-tetrahydro-1H-3-benzazepin-7-yl)oxy]-3-pyridazinyl}-1,3-oxazolidin-2-one]
Ki [1]: 0.0501 nM

Cc1noc(-c2cnc(Oc3ccc4c(c3)CCN(C3CCCC3)CC4)cn2)n1 [Compound 7, 3-Cyclopentyl-7-{[5-(3-methyl-1,2,4-oxadiazol-5-yl)-2-pyrazinyl]oxy}-2,3,4,5-tetrahydro-1H-3-benzazepine]
Ki [1]: 0.126 nM

CN1CCN(c2ccc(Oc3ccc4c(c3)CCN(C3CCC3)CC4)c(F)c2)C1=O [Compound 3, 1-{4-[(3-Cyclobutyl-2,3,4,5-tetrahydro-1H-3-benzazepin-7-yl)oxy]-3-fluorophenyl}-3-methyl-2-imidazolidinone]
Ki [1]: 0.0501 nM
Ki [2]: 0.158 nM

Cc1noc(-c2ccc(Oc3ccc4c(c3)CCN(C3CCCC3)CC4)nc2)n1 [Compound 9, 3-Cyclopentyl-7-{[5-(3-methyl-1,2,4-oxadiazol-5-yl)-2-pyridinyl]oxy}-2,3,4,5-tetrahydro-1H-3-benzazepine]
Ki [1]: 0.251 nM

O=C1CCCN1c1ccc(Oc2ccc3c(c2)CCN(C2CCCC2)CC3)nn1 [Compound 6, 1-{6-[(3-Cyclopentyl-2,3,4,5-tetrahydro-1H-3-benzazepin-7-yl)oxy]-3-pyridazinyl}-2-pyrrolidinone]
Ki [1]: 0.126 nM

O=C1CCCN1c1ccc(Oc2ccc3c(c2)CCN(C2CCC2)CC3)cc1 [Compound 4, 1-{4-[(3-Cyclobutyl-2,3,4,5-tetrahydro-1H-3-benzazepin-7-yl)oxy]phenyl}-2-pyrrolidinone]
Ki [1]: 0.158 nM

O=C1CCCN1c1ccc(Oc2ccc3c(c2)CCN(C2CCCC2)CC3)nc1 [Compound 1, 1-{6-[(3-Cyclopentyl-2,3,4,5-tetrahydro-1H-3-benzazepin-7-yl)oxy]-3-pyridinyl}-2-pyrrolidinone]
Ki [1]: 0.0794 nM
Ki [2]: 0.158 nM

Cc1noc(-c2ccc(Oc3ccc4c(c3)CCN(C3CCC3)CC4)nc2)n1 [Compound 8, 3-Cyclobutyl-7-{[5-(3-methyl-1,2,4-oxadiazol-5-yl)-2-pyridinyl]oxy}-2,3,4,5-tetrahydro-1H-3-benzazepine]
Ki [1]: 0.1 nM

O=C1CCCN1c1cnc(Oc2ccc3c(c2)CCN(C2CCCC2)CC3)cn1 [Compound 2, 1-{5-[(3-Cyclopentyl-2,3,4,5-tetrahydro-1H-3-benzazepin-7-yl)oxy]-2-pyrazinyl}-2-pyrrolidinone]
Ki [1]: 0.0794 nM
Ki [2]: 0.158 nM
